Where two headings read alike, the source gives them in different places.
What was measured:
[1] = target: T1, cytochrome c oxidase (CcO) purified from heart mitochondria (Bos taurus, UniProt P00396+P07471+P68530); test: Cytochrome oxidase activity of solubilized mitochondrial CcO (oxygen uptake); format: biochemical
T1 construct: Cytochrome c oxidase was purified from the heart mitochondria of Bos taurus; from tissue; host or cells: bovine heart mitochondria

[2] = Permeabilization of calcein-loaded asolectin liposomes (calcein release); details: 5 μM peptide
[3] = tested on: cytochrome c oxidase (CcO), peroxidase activity; test: Peroxidase partial activity of solubilized CcO (peroxidation of ferrocyanide); format: biochemical, Bos taurus; details: 50 μM P4; 0.6 μM solubilized CcO, 0.2 mM ferrocyanide with equimolar ferricyanide, 4 mM H2O2
Experimental: The two-electron reduction of H2O2 to water refers to the peroxidase phase of the CcO catalytic cycle. As shown previously, this reaction can be carried out aerobically using a high-potential electron donor [51]. We followed this partial activity of CcO in the presence of a ferro/ferricyanide pair at E’ ≈ +420 mV when the oxidase reaction becomes negligible. Peroxidation of ferrocyanide by CcO was recorded spectrophotometrically (Figure 3).
Peroxidation of 0.2 mM ferrocyanide (against the background of equimolar ferricyanide) was monitored at 0.6 μM solubilized CcO. The reaction was triggered by the addition of 4 mM H2O2 (shown by the arrow). […] The initial jump upon H2O2 addition reflects spectral response in the γ-band of heme a3 upon oxoferryl intermediate formation.
Peroxidase partial activity of CcO was assayed in BM following peroxidation of ferrocyanide by the absorption difference at 420 nm vs. 500 nm references, using the spectrophotometer SLM Aminco DW-2000 (SLM Instruments, Urbana, IL, USA) in a dual-wavelength mode. In order to obtain a redox buffer with Em ≈ 420 mV, equal amounts of ferri- and ferrocyanide were mixed. No ferrocyanide oxidase activity was observed until the peroxidase reaction was initiated by the addition of H2O2. The reaction was carried out in a standard semi-micro cuvette (Hellma, Mullheim, Germany) with blackened side walls and a 10 mm light pathway.

[4] = tested on: CcO reconstituted into asolectin vesicles; test: CcO activity in asolectin proteoliposomes; format: biochemical, Bos taurus; details: peptide up to 150 μM
[5] = target: T2, CcO in rat liver mitochondria (Rattus norvegicus, UniProt P00406+P05503); test: CcO activity in the mitochondrial membrane (respiration of rat liver mitochondria); format: biochemical
T2 construct: Rat liver mitochondria were isolated by differential centrifugation; from tissue; host or cells: rat liver mitochondria
T2 sequence (P00406 whole entry, other chains not shown): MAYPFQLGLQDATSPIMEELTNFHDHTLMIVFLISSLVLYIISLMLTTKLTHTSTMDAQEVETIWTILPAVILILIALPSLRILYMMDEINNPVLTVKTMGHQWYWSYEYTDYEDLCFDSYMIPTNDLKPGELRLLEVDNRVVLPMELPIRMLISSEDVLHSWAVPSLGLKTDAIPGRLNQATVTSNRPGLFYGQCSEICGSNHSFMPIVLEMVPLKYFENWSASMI

With Ac-RTKLWEMLVELGNMDKAVKLWRKLKR-NH2 [P4] the “final rate of the oxidase reaction, % of the initial” value ([1]; 20 μM P4 added in the course of the reaction, constant level 1.5 min later, solubilized CcO 20 nM) was ≤ 15%, the Ki ([1]; solubilized bovine heart CcO 20 nM, oxygen uptake, Clark electrode, 25 °C, BM 50 mM Hepes/Tris pH 7.6, 50 mM KCl, 1 mM (0.05%) DM, 5 mM ascorbate, 0.1 mM TMPD, 10 μM cytochrome c, fit by Equation (1), read-out: Inhibition of CcO, Solubilized, Ki(app)) was 0.0076 mM and the Ki ([1]; solubilized mitochondrial CcO, intercept of linear dependence of Ki(app) on [DM], read-out: true Ki (extrapolation of DM to zero)) was 0.003 mM. For the same substance, the “time to reach the 100% level of calcein release” value ([2]; 100% = after Triton X-100 0.1%) was 3 min, the “t1/2 of fluorescence increase (calcein release)” value ([2]; liposomes 0.1 mg lipid/mL, 20 mM MOPS/Tris pH 7.3, 0.2 mM EDTA, fluorescence 520 nm (excitation 490 nm)) was ~ 12 s and the “rate of peroxidase reaction (ferricyanide formation) upon addition of peptide” value [3] was “did not change”. The “oxidase reaction rate of CcO in proteoliposomes upon addition of peptide” value [4] was “does not change the reaction rate” and the “inhibitor concentration up to which the rate of the oxidase reaction remains almost unchanged” value [5] was ~ 10 μM.

From PMC9961948, “Interaction of Amphipathic Peptide from Influenza Virus M1 Protein with Mitochondrial Cytochrome Oxidase” (International Journal of Molecular Sciences, 2023)
